According to PMC3589633 (Investigational New Drugs, 2012):
Read-outs that look alike come from different tables or passages of the source. Marks after values point to notes of the source that are not given here.

Legend:
advanced solid tumors = assay: Antitumor activity by RECIST; type: in vivo, human
HER2 = details: read-out: half-maximal inhibitory concentration (IC50); cited from earlier work
HER4 = details: read-out: half-maximal inhibitory concentration (IC50); cited from earlier work
[1] = tested on: patients with advanced or metastatic solid tumors; details: in vivo
[2] = tested on: patients with advanced solid tumors; details: cited from earlier work
[3] = Plasma pharmacokinetics, noncompartmental analysis; type: in vivo, human; details: for clearance: total body clearance
[4] = tested on: patients with advanced or metastatic solid tumors
[5] = 20 mg q.d. oral, Day 27 steady state, n = 3
[6] = 60 mg q.d. oral, Day 27 steady state, individual value from one patient

## CN(C)C/C=C/C(=O)Nc1cc2c(Nc3ccc(F)c(Cl)c3)ncnc2cc1O[C@H]1CCOC1 [afatinib]
Advanced solid tumors; 40 mg dose cohort
  patients with stable disease: Five
Advanced solid tumors; 29 evaluable patients, RECIST
  objective responses: No objective responses
Advanced solid tumors; one in 20 mg/d group, two in 40 mg/d group
  patients remaining on treatment for more than 16 weeks: Three
Advanced solid tumors; one ovarian cancer patient, 20 mg group
  duration of stable disease: 204 days
HER2
  IC50: 14 nM
HER4
  IC50: 1 nM
[1]; human
  Patients discontinued owing to DLT: 2 (6.7) n, %
  Patients discontinued owing to Other AEs: 3 (10.0) n, %
  dermatitis acneiform, treatment-related AE, patients: 33.3%
  diarrhea, treatment-related AE, patients: 76.7%
  fatigue, treatment-related AE, patients: 33.3%
  mucosal inflammation, treatment-related AE, patients: 43.3%
  onset of diarrhea during the first treatment course, patients: 70%
  patients with AEs considered related to study medication: 29
  patients with at least one AE: 30
[1]; human, 28 days
  Patients with DLT events during the initial 28-day treatment period: 3 n
[1]
  cardiac events: No cardiac events were reported
  patients with DLT, in total: three patients
[2]; 2-week on/2-week off schedule
  dose that could be safely administered: 70 mg/day
[2]; 3-week on/1-week off schedule
  dose administered with tolerable side effects: 40 mg/day
  maximum tolerated dose (MTD): 55 mg/day
[2]; once-daily, 2-week on/off schedule
  recommended Phase II dose (RP2D): 70 mg
[3]; 10 mg q.d. oral, Day 27 steady state, N = 2
  Cpre,ss gMean: 2.64^b ng/mL
[3]; 10 mg q.d. oral, Day 27 steady state, n = 3
  CL/F,ss gMean: 2980 mL/min
[3]; [5]
  CL/F,ss gMean: 755 mL/min
  Cpre,ss gMean: 12.5 ng/mL
[3]; 40 mg q.d. oral, Day 27 steady state, N = 16
  Cpre,ss gMean: 16.1^c ng/mL
[3]; [6]
  CL/F,ss: 567 mL/min
  Cpre,ss: 52.3 ng/mL
[3]; 10-60 mg, steady state
  dose-proportionality: no obvious deviation from dose-proportionality
[3]; Treatment Period 1, once-daily oral
  steady-state reached: ≤ 8 days
[3]; human, plasma, oral
  half-life: 37.4 h
[3]; human, plasma, oral, apparent volume of distribution during the terminal phase, overall gMean, all groups (data not shown)
  Vd: 3630 L
[3]; human, plasma, oral, gMean, range across dose groups
  clearance: 567 to 2980 mL/min
[3]; human, plasma, oral, overall gMean, across all groups (data not shown)
  clearance: 1330 mL/min
[3]; human, plasma, po
  half-life: 34 to 48 h
[4]; 10 mg/day
  Patients discontinued owing to Disease progression: 4 (80) n, %
[4]; 20 mg/day
  Patients discontinued owing to Disease progression: 3 (100) n, %
[4]; 40 mg/day
  Patients discontinued owing to Disease progression: 14 (73.7) n, %
[4]; 60 mg/day
  Patients discontinued owing to Disease progression: 1 (33.3) n, %
[4]; Total
  Patients discontinued owing to Disease progression: 22 (73.3) n, %
[4]; continuous once-daily oral, 28-day cycles
  MTD: 40 mg/day
